Assay results taken from patent US20020160968A1, “Inhibitors of cellular niacinamide mononucleotide formation and their use in cancer therapy” (Klinge Pharma GmbH, priority 1999, published 2002).

Key:
HepG2 cells = experiment: Cell growth under high-density conditions (SRB assay), delayed cell death (DCD); assay type: cell-based, human; details: Homo sapiens, high density HepG2 cultures
[1] = target: T1, niacinamide phosphoribosyltransferase (NAPRT, EC 2.4.2.12) (Homo sapiens, UniProt P43490); experiment: Niacinamide phosphoribosyltransferase (NAPRT) assay, protamine-treated cytoplasmic fraction of K-562 cells; assay type: biochemical; details: for NAM: niacinamide mononucleotide formed, controls 79.1 and 71.8; for NA: niacinamide remaining, controls 389.7 and 397.0; for NAM [%] / NA [%]: portion of total radioactivity
T1 construct: protamine-treated cytoplasmic fraction of K-562 cells as the enzyme source; endogenous in cells; host or cells: K-562 (ATCC CCL 243), freeze-thaw lysate, 23,000 x g supernatant treated with protamine sulfate
T1 sequence (P43490 whole entry): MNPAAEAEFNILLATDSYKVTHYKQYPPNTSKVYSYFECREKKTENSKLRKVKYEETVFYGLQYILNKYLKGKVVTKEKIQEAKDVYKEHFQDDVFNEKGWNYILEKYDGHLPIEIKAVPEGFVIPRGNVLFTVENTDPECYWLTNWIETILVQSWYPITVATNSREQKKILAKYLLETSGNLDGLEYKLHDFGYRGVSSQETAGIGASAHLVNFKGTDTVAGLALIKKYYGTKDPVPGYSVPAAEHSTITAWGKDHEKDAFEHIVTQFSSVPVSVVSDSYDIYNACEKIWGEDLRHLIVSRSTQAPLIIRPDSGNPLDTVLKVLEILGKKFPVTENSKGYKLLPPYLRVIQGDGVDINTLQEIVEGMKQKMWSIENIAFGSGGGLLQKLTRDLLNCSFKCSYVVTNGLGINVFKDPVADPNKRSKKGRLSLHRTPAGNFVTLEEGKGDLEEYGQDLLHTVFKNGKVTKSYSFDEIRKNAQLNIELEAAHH
Description: The effect of the compounds on the enzyme niacinamide phosphoribosyltransferase (NAPRT, EC 2.4.2.12) was investigated using for example protamine-treated cytoplasmic fraction of K-562 cells as the enzyme source according to the NAPRT assay described in the experimental part below. The investigated compounds were used in concentrations of 10 μM, except for K22387 and K22133 where the concentration was 1 μM.
The assay is based on the amount of radioactive incorporation from ^14C-labelled niacinamide into niacinamide mononucleotide (NAM). NAM is subsequently separated from niacinamide (NA) by thin-layer chromatography and its quantity is determined by autoradiography.
Niacinamide Phosphoribosyltransferase (NAPRT) Assay
The human cell line K-562 (chronic myelogenous leukaemia) is obtained from the American Type Culture Collection (ATCC CCL 243), Rockville, Md., USA. The K-562 cells are cultured in RPMI (Sigma, Deisenhofen, Germany, Product No.: R6504) containing 10% foetal calf serum (PAN Systems GmbH, Aidenbach, Germany), 2.2 g/l NaHCO3 (Merck, Darmstadt, Germany), 50,000 IU/l penicillin and 50 mg/l streptomycin (Sigma).
The K-562 cells are grown in RPMI supplemented with 10% FCS at 37° C. and 100% humidity in a 5% CO2 atmosphere up to a density of 2×10^6 cells per ml. Under these conditions, the cells grow logarithmically with a generation time of 24 hours. The cells are harvested by aspiration and centrifugation (250×g, 10 min, RT). Thereafter, the cells are washed at least 3 times by repeated centrifugation (250×g, 10 min, RT) and resuspension in CMF-PBS. After counting the cell suspension in a haematocytometer, the cells are spun into a tight pellet (390×g, […], RT) and the supernatant is carefully drawn off with a Pasteur pipette. The cells are then vortexed into suspension in sufficient lysis buffer to give a final concentration of 3×10^7 cells per ml. The suspension is frozen at −80° C. for at least one day and thawed slowly at room temperature to break up the cells. The breakage is usually greater than 95%, as determined by trypan blue exclusion. Following centrifugation at 23,000×g for 90 min at 0° C., the clarified supernatant is recovered on ice and 70 μl of 1% protamine sulfate is added per ml of supernatant. After 15 min on ice, the cloudy suspension is centrifuged a further 30 min at 23,000×g and 0° C. The final supernatant is stored in small aliquots at […] This supernatant contains about 950 to 1440 μg protein per ml. 120 to 140 μg protein per sample is used in the NAPRT assay (total assay volume: 0.5 ml).
The niacinamide phosphoribosyltransferase activity is determined in a reaction solution of 0.5 ml consisting of 5 mM MgCl2, 2 mM ATP, 0.5 mM PRPP, and [^14C]niacinamide (10^−5 M to 10^−7 M) in 50 mM Tris buffer pH 8.8 (final concentrations in the assay). The reaction is started by adding 100 to 120 μl cell extract. After incubation for 1 hour at 37° C., the enzyme reaction is stopped by adding cold niacinamide (50 μl of a 100 mM niacinamide solution per 0.5 ml reaction mixture) and by heating on a heating block (2 min, 105° C.). The precipitate is removed by centrifugation (2,500×g, 10 min, 4° C.) and the supernatant is collected into a […] polypropylene vial with screw cap and stored at −20° C. until further analysis. A 10 μl aliquot is taken from the supernatant to determine the total amount of radioactivity.
The ^14C-labelled components of the reaction mixture are separated and identified using thin-layer chromatography (TLC). 5 to 7.5 μl of each sample is transferred to a cellulose TLC foil using an automated sample applicator. The cellulose foil is developed using 1 M NH4 acetate:ethanol (3:7) as solvent. The chromatogram is run with added non-radioactive standards of NAD, NADP, NAM and niacinamide, and the spots were identified by UV absorption (RF values see Table 7). For autoradiography, the chromatogram is exposed to an imaging plate BAS-IIIs in a hypercassette for at least two days. […]

Hep G2 cells = experiment: Nicotinamide Reversibility Assay / cell growth inhibition of Hep G2 cells (SRB, six days); assay type: cell-based, human; details: for IC50: Homo sapiens, HepG2, 144 h, six days of compound incubation, SRB, read-out: Cell growth inhibition IC50-values [μM] Hep G2
[2] = minimum concentration which, despite initial growth, induced cell death below the number of initially seeded cells, Table 2
[3] = compound 10 μM, controls 16.88 and 15.32
[4] = compound 10 μM, controls 83.12 and 84.68

Compound | minimal effective concentration (HepG2 cells; Table 5) [µM] | minimal effective concentration (HepG2 cells; [2]) [µM] | NAM ([1]; compound 10 μM) [pmol/h] | NA ([1]; compound 10 μM) [pmol/h] | NAM [%] [1, 3] [%] | NA [%] [1, 4] [%] | IC50 (Hep G2 cells; Hep G2) [µM] | NAM ([1]; compound 1 μM) [pmol/h] | NA ([1]; compound 1 μM) [pmol/h] | NA [%] ([1]; compound 1 μM) | NAM [%] ([1]; compound 1 μM) | Influence of the addition of nicotinamide on the action on cell growth (FIGS. 20 to 27) (Hep G2 cells; Hep G2) | Reversal by Niacinamide (Hep G2 cells; Hep G2 cell growth inhibition with added nicotinamide)
Cn1c(CCNC(=O)/C=C/c2cccnc2)ccc1CN1CCN(C(c2ccccc2)c2ccccc2)CC1 [Compound K22350, N-{2-[5-(4-benzhydryl-piperazine-1-yl-methyl)-1-methyl-1H-pyrrole-2-yl]-ethyl}-3-pyridine-3-yl-acrylamide] | 1 | 1 | 0.0 | 468.8 | 0.00 | 100.00 | 0.7 | – | – | – | – | – | –
O=C(NCCCCC1CCN(S(=O)(=O)c2ccc3ccccc3c2)CC1)Nc1cccnc1 [Compound K22365, 1-{4-[1-(naphthalene-2-sulfonyl)-piperidine-4-yl)-butyl}-3-pyridine-3-yl-urea] | 3 | 3 | 0.0 | 468.8 | 0.00 | 100.00 | 0.6 | – | – | – | – | – | –
O=C(NCCCCC1CCN(C(=O)N2c3ccccc3CCc3ccccc32)CC1)Nc1cccnc1 [Compound K22387, 1-{4-[1-(1,11-dihydro-dibenzene[b,f]azepine-5-carbonyl)-piperidine-4-yl]-butyl}-3-pyridine-3-yl-urea] | 0.01 | 0.01 | – | – | – | – | 0.002 | 0.0 | 468.8 | 100.00 | 0.00 | can be antagonized | yes
NC(Cc1ccc(O)c(N=Nc2ccccc2C(=O)N2CCC(CCCCNC(=O)/C=C/c3cccnc3)CC2)c1)C(=O)O (stereo not drawn) [Compound K22408, 2-amino-3-[4-hydroxy-3-(2-{4-[4-(3-pyridine-3-yl-acryloyl-amino)-butyl]-piperidine-1-carbonyl}-phenylazo)-phenyl]-propanoic acid trihydrate] | 1 | 1 | 0.0 | 468.8 | 0.00 | 100.00 | 0.2 | – | – | – | – | – | –
